Reference: patent publication US20240299562A1 (priority 2020, published 2024)
*1 amine or outer side, *2 acyl side, *3 side chain or, on linkers, in order; H or OH if unused. Where a SMILES comes first, the peptide text is derived from it. [ ]: non-standard residue; d: D form. The star is where a group is joined. X1 = CO[C@@H](C1CCCN1[*:1])[C@@H](C)C(=O)[*:2]; Dil = CC[C@H](C)[C@H](NC)[C@@H](CC(=O)O)OC; PABC = O=C(OCc1ccc(N[*:1])cc1)[*:2]; Phosphonoacetyl = O=C(CP(=O)(O)O)*; X2 = C[C@@H](N*)[C@@H](O)c1ccccc1; NMeV = CN[C@H](C(=O)O)C(C)C

System: A2058 melanoma cells subcutaneously implanted in nude NMRI mice
Experiment: In vivo activity on A2058 melanoma xenograft
Design: species or system mouse
Method: The in vivo efficacy of PhAc-ALLP-PABC-MMAE was tested in a mouse melanoma model. A2058 melanoma cells were subcutaneously (SC) implanted in nude NMRI mice. In total, 36 adult (9-10 weeks old) nude female NMRI mice (Janvier, France) were subjected to SC tumor cell grafting in the right flank. In total, 3×10^6 A2058 cells resuspended in PBS plus Matrigel (1:1) were injected in 200 uL final volume. As soon as the tumors were palpable and reached the volume of 200 mm3 the treatment was started. At day zero, mice were randomly divided into 4 groups, based on the tumor volume, in order to have the following experimental sub-cohorts: • control group receiving the vehicle (PBS pH7.2) with a dose of 5 ml/kg, intravenously (iv), once per week (QW); • PhAc-ALLP-PABC-MMAE (2 mg/kg iv, QW); • PhAc-ALLP-PABC-MMAE (4 mg/kg iv, QW); • MMAE (0.9 mg/kg iv, QW).
Treatments were performed once per week for a total of four tail vein administrations/injections (on days 1, 7, 14 and 21). Two extra weeks of observation followed the active treatment phase. During the experiment, tumor volume was measured two times a week and was assessed three-dimensionally with a digital caliper (Mitutoyo, Illinois) using the following formula:
V=4/3π×[(d/2)^2×(D/2)], where d is the minor tumor axis and D is the major tumor axis.

CC[C@H](C)[C@@H]([C@@H](CC(=O)N1CCCC1[C@H](OC)[C@@H](C)C(=O)N[C@H](C)[C@@H](O)c1ccccc1)OC)N(C)C(=O)[C@@H](NC(=O)[C@H](C(C)C)N(C)C(=O)OCc1ccc(NC(=O)[C@@H]2CCCN2C(=O)[C@H](CC(C)C)NC(=O)[C@H](CC(C)C)NC(=O)[C@H](C)NC(=O)CP(=O)(O)O)cc1)C(C)C (some centres unmarked) [PhAc-ALLP-PABC-MMAE] (Phosphonoacetyl-ALLP[PABC][NMeV]V[Dil][X1]-X2)
Tumor volume compared to the untreated control group (2 mg/kg iv, once per week, four administrations): importantly reduced the tumor volume
Response (2 mg/kg iv, once per week, observed until day 34): Complete response
Relapse and macroscopical toxicity (2 mg/kg iv, once per week, until day 34): without any hint of relapse or macroscopical sign of toxicity
Tumor growth (higher concentration (4 mg/kg iv, once per week)): important reduction of tumor growth
Reduction of body weight (higher concentration (4 mg/kg iv, once per week), sacrificed at day 21): > 20%
